Assay results: publication PMC9410537, “Discovery of Ircinianin Lactones B and C—Two New Cyclic Sesterterpenes from the Marine Sponge Ircinia wistarii” (Marine Drugs, 2022)

Columns and labels:
[1] = tested on: L. donovani strain MHOM/ET/67/L82 axenic amastigotes; experiment: Activity against L. donovani axenic amastigotes (resazurin); type: cell-based, Leishmania donovani; details: Leishmania donovani, in vitro, Table 2 values are means of two independent assays
Method: Activity against L. donovani axenic amastigotes. Amastigotes of L. donovani strain MHOM/ET/67/L82 were grown in axenic culture at 37 °C in SM medium at pH 5.4 supplemented with 10% heat-inactivated fetal bovine serum under an atmosphere of 5% CO2 in air. 100 µL of culture medium with 10^5 amastigotes from axenic culture with or without a serial drug dilution were seeded in 96-well microtiter plates. Serial drug dilutions ranged from 100 to 0.002 μg/mL. After 70 h of incubation, the plates were inspected under an inverted microscope to assure growth of the controls and sterile conditions.

[2] = tested on: Severe Acute Respiratory Syndrome Corona Virus type 2 (SARS-CoV-2); type: cell-based; details: up to the highest concentration tested (10 µM), CaCo2 cells
[3] = tested on: Litomosoides sigmodontis adult female worms; experiment: Anthelmintic assay, motility of adult filariae cultured in vitro; type: cell-based; details: 0.1, 1 and 10 µM; scale 0 (immotile) to 2 (maximum motility); 2.0 in media controls
Method: To investigate the activity against filarial nematodes, adult female worms of the rodent filarial nematode Litomosoides sigmodontis were cultured in vitro with a 0.1, 1 and 10 µM concentration of 1. Motility of adult filariae as well as reduction of Wolbachia endosymbionts were assessed. […] L. sigmodontis adult female worms were isolated from chronically infected cotton rats (UKB). Three L. sigmodontis female adult worms per condition were cultured in supplemented Minimal Essential Medium (MEM) on a LLCMK2 cell layer, as previously described. […] Candidate 1 was tested at concentrations of 0.1, 1 and 10 µM. Filarial viability was assessed by determining the mean worm motility scores on a scale of 0 (immotile) to 2 (maximum motility) before drug addition and at 1 h, 1 day, 2 day, 4 day, 6 day, 8 day, 10 day, 12 day and 14 day post drug addition. The drug-containing media was renewed every other day. Depletion of Wolbachia endosymbionts from female adult worms was analyzed after two weeks of in vitro culture and determined as previously described using primers for the single copy gene Wolbachia ftsZ.

[4] = tested on: B. subtilis 168; experiment: Antibacterial assay (MIC); type: cell-based; details: Bacillus subtilis
Method: (§1) The minimal inhibitory concentration (MIC) was determined as described previously in cation-adjusted Mueller-Hinton medium according to the standards and guidelines of the Clinical and Laboratory Standards Institute. […] After an overnight incubation at 37 °C, the MIC was read as the lowest compound concentration preventing visible bacterial growth. The strain panel included representative species of nosocomial pathogens, known as “[…]” bacteria. Specifically, the following strains were used: Enterococcus faecium BM 4147-1, Staphylococcus aureus ATCC 29213, Klebsiella pneumoniae ATCC 12657, Acinetobacter baumannii 09987, Pseudomonas aeruginosa ATCC 27853, and Enterobacter aerogenes ATCC 13048. Bacillus subtilis 168, Escherichia coli ATCC 25922, and Mycobacterium smegmatis mc^2 155 ATCC 700084 were used as further reference strains.

[5] = tested on: A. baumannii 09987; experiment: Antibacterial assay (MIC); type: cell-based; details: Acinetobacter baumannii
Method: as §1

[6] = tested on: S. aureus ATCC29213; experiment: Antibacterial assay (MIC); type: cell-based; details: Staphylococcus aureus
Method: as §1

[7] = tested on: E. coli ATCC25922; experiment: Antibacterial assay (MIC); type: cell-based; details: Escherichia coli
Method: as §1

[8] = tested on: P. aeruginosa ATCC27853; experiment: Antibacterial assay (MIC); type: cell-based; details: Pseudomonas aeruginosa
Method: as §1

[9] = tested on: K. pneumoniae ATCC12657; experiment: Antibacterial assay (MIC); type: cell-based; details: Klebsiella pneumoniae
Method: as §1

[10] = tested on: E. faecium BM4147-1; experiment: Antibacterial assay (MIC); type: cell-based; details: Enterococcus faecium, BM41471
Method: as §1

[11] = tested on: E. aerogenes ATCC13048; experiment: Antibacterial assay (MIC); type: cell-based, Enterobacter aerogenes; details: Klebsiella aerogenes
Method: as §1

[12] = Observed stability of the isolated compounds; type: physicochemical; details: rapid decomposition after the NMR measurements
Excerpt: The shift values of the terminal heterocycle were in very good agreement with literature data from similar natural products, bearing a γ-hydroxy-γ-butenolide moiety. Analogous to compound 7, the Δ^8,10 double bond of 8 was defined as E (C-9: δC 16.2 and NOESY cross correlations depicted in Figure 4). Likewise, based on the same observed diagnostic NOE crosspeaks for the indene system (Figure S43B) and for biogenetic reasons, we propose that 8 is 11R*, 15R*, 18S*, 20R*, 21S* configured. […] Therefore, we integrated computational methods and aimed for quantum-mechanical predictions of ^1H and ^13C NMR chemical shifts of a 1S- and a 1R-configured version of 8.
All tests were performed with 1 as a pre-screening for the scaffold’s activity within their respective assays. Based on the results from the pre-screening, the biological evaluation of the structural congeners was planned. Unfortunately, an instability phenomenon affected the purity of the isolated compounds. Due to the limited amounts of the isolated compounds, repurification would not have yielded the required sample quantity for the assays. This reality precluded biological evaluation of the structural congeners 3–8.

[13] = tested on: Mytilus galloprovincialis larvae; experiment: Marine antifouling assay, larval settlement and metamorphosis; details: up to the highest concentration tested (100 µg/mL), 5 days
Method: (§2) Antifouling activity was assessed via inhibition of settlement and metamorphosis of larvae of the Pacific transparent sea squirt (Ciona savignyi) and the blue mussel (Mytilus galloprovincialis). Methods followed those published by Grant et al.. Adults of both species were collected from coastal populations in the Nelson region of New Zealand, held in a recirculating seawater system (18 ± 1 °C, 33 ± 1 PSU) and fed bulk-cultured Isochorysis galbana until ready to spawn. Larval spawning and rearing procedures followed previously described methods for C. savignyi and M. gallorprovincialis. Competent larvae were diluted in artificial seawater to yield 3 ± 1 larvae/mL. Aliquots of these larval suspensions were added to 12-well tissue culture plates (Corning Co-Star) containing serial dilutions of 1 ranging from 0.1–100 µg/mL. Controls were included, and three replicates were performed in all cases. After 5 days of incubation at 18 ± 1 °C, the number of successfully settled and metamorphosed individuals were counted in each well. Sigmoidal dose-response relationships were explored using R Statistical Software to determine whether inhibition had occurred relative to the controls.

[14] = tested on: Ciona savignyi larvae; experiment: as above; details: up to the highest concentration tested (100 µg/mL), 5 days
Method: as §2

Q: For `CC1=C[C@@H](/C=C(\C)CCCc2ccoc2)[C@]2(OC(=O)C(C)=C2O)[C@@H]2[C@@H](C)CC[C@@H]12` [compound 1, Ircinianin], which IC50 [1] is on record?
A: 16.6 µM

Q: And the “Inhibition of SARS-CoV-2 infection” value [2]?
A: no inhibition

Q: What about the motility score [3] of the same compound?
A: 1.7–1.8

Q: And the MIC [4]?
A: > 32 µg/mL

Q: And the MIC [5]?
A: > 32 µg/mL

Q: What about the MIC [6] of the same compound?
A: > 32 µg/mL

Q: What about the MIC [7] of the same compound?
A: > 32 µg/mL

Q: And the MIC [8]?
A: > 32 µg/mL

Q: And the MIC [9]?
A: > 32 µg/mL

Q: What about the MIC [10] of the same compound?
A: > 32 µg/mL

Q: And the MIC [11]?
A: > 32 µg/mL

Q: What about the “Stability of isolated compound” value [12] of the same compound?
A: unstable

Q: And the “Inhibitory effect on larval settlement and metamorphosis” value [13]?
A: inactive

Q: What about the “Inhibitory effect on larval settlement and metamorphosis” value [14] of the same compound?
A: inactive
